The values that follow come from patent US20090075915A1, “6,11-BICYCLOLIDES: BRIDGED BIARYL MACROLIDE DERIVATIVES” (priority 2007, published 2009).

The structures appear in SMILES notation. In brackets after ≈: the same amount, converted by molar mass.

The subject of one assay is H influenzae 49247. The assay is described as follows: MIC, H influenzae 49247. Conditions: for MIC: Haemophilus influenzae, 49247, Table 5; for H. influenzae 49247 (microbiological data): Table 6, related compounds of US 6878691. The format is cell-based, Haemophilus influenzae. The protocol: (§1) Susceptibility tests can be used to quantitatively measure the in vitro activity of an antimicrobial agent against a given bacterial isolate. Compounds are tested for in vitro antibacterial activity by a micro-dilution method. Minimal Inhibitory Concentration (MIC) is determined in 96 well microtiter plates utilizing the appropriate broth medium for the observed bacterial isolates. Antimicrobial agents are serially diluted (2-fold) in DMSO to produce a concentration range from about 64 μg/ml to about 0.03 μg/ml. The diluted compounds (2 μl/well) are then transferred into sterile, uninoculated medium (0.2 mL) by use of a 96 fixed tip-pipetting station. The inoculum for each bacterial strain is standardized to approximately 5×10^5 CFU/mL by optical comparison to a 0.5 McFarland turbidity standard. The plates are inoculated with 10 μl/well of adjusted bacterial inoculum. The 96 well plates are covered and incubated at 35±2° C. for 24 hours in ambient air environment. Following incubation, plate wells are visually examined by Optical Density measurement for the presence of growth (turbidity). The lowest concentration of an antimicrobial agent at which no visible growth occurs is defined as the MIC.
(§2) All in vitro testing follows the guidelines described in the Approved Standards M7-A7 protocol, published by the Clinical Laboratory Standards Institute (CLSI).

A further assay has as its system H influenzae 33929. The experiment in a line: MIC, H influenzae 33929. The class given is cell-based, Haemophilus influenzae. The note with it: for MIC: Haemophilus influenzae, 33929, Table 5; for H. influenzae 33929 (microbiological data): Table 6, related compounds of US 6878691. On the procedure:
as §1, §2

The subject of a further assay is MRSA 7662. The assay is described as follows: MIC, MRSA 7662. The format is cell-based. Conditions: Staphylococcus aureus, Table 5, read-out: MIC MRSA 7662. On the procedure: as §1, §2
Another assay deals with MRSA 33591. The assay is described as follows: MIC, MRSA 33591. The class given is cell-based, Staphylococcus aureus. The note with it: for MIC: Staphylococcus aureus, MRSA, Table 5; for MRSA 33591 (microbiological data): Table 6, related compounds of US 6878691. On the procedure:
as §1, §2

As to `CC[C@H]1OC(=O)[C@H](C)C(=O)[C@H](C)[C@@H](O[C@@H]2O[C@H](C)C[C@H](N(C)C)[C@H]2O)[C@@]2(C)C[C@@H](C)C(=O)[C@H](C)[C@@H](OC/C(=N\OCc3ccc(-c4nc(N)ns4)cn3)CO2)[C@]1(C)O` [Compound 2], the MIC with H influenzae 49247 is 1 µg/mL (≈ 1.2 µM); in the assay with H influenzae 33929, 2 µg/mL (≈ 2.4 µM).
With `CCC(=O)/N=C1\[C@H](C)C[C@@]2(C)OC/C(=N/OCc3csc(-c4cccc(N)n4)n3)CO[C@H]([C@H]1C)[C@](C)(O)[C@@H](CC)OC(=O)[C@@](C)(F)C(=O)[C@H](C)[C@H]2O[C@@H]1O[C@H](C)C[C@H](N(C)C)[C@H]1O` [Compound 3], the MIC in the assay with MRSA 7662 came to 1 µg/mL (≈ 1.1 µM); against MRSA 33591 it was 2 µg/mL (≈ 2.21 µM); with H influenzae 49247, 1 µg/mL (≈ 1.1 µM); in the assay with H influenzae 33929, 4 µg/mL (≈ 4.42 µM).
Turning to `CCC(=O)/N=C1\[C@H](C)C[C@@]2(C)OC/C(=N/OCc3coc(-c4cccc(N)n4)n3)CO[C@H]([C@H]1C)[C@](C)(O)[C@@H](CC)OC(=O)[C@@](C)(F)C(=O)[C@H](C)[C@H]2O[C@@H]1O[C@H](C)C[C@H](N(C)C)[C@H]1O` [Compound 11], the figures for the MIC with MRSA 7662 and against MRSA 33591 were 2 µg/mL (≈ 2.25 µM) and 4 µg/mL (≈ 4.5 µM), respectively.
With `CCC1OC(=O)C(C)C(=O)C(C)C(OC2OC(C)CC(N(C)C)C2O)C2(C)CC(C)C(=NC(C)=O)C(C)C(OCC(=NOCc3ccc(-c4cccnc4)s3)CO2)C1(C)O` (centres unmarked) [Example 66 in US 6878691], the “MRSA 33591 (microbiological data)” value in the assay on MRSA 33591 is listed as above 64. Besides, in the assay with H influenzae 49247, the “H. influenzae 49247 (microbiological data)” value is 16. Moreover, in the assay with H influenzae 33929, the “H. influenzae 33929 (microbiological data)” value was determined as 16.
For the compound `CCC1OC(=O)C(C)C(=O)C(C)C(OC2OC(C)CC(N(C)C)C2O)C2(C)CC(C)C(=NC(C)=O)C(C)C(OCC(=NOCc3cc(-c4cccnc4)no3)CO2)C1(C)O` (centres unmarked) [Example 69 in US 6878691], the “MRSA 33591 (microbiological data)” value with MRSA 33591 is listed as above 64. The “H. influenzae 49247 (microbiological data)” value with H influenzae 49247 is 16. For the same compound, the “H. influenzae 33929 (microbiological data)” value with H influenzae 33929 was determined as 16.
Take `CCC1OC(=O)C(C)C(=O)C(C)C(OC2OC(C)CC(N(C)C)C2O)C2(C)CC(C)C(=NC(C)=O)C(C)C(OCC(=NOCc3ccc(-c4csnn4)cc3)CO2)C1(C)O` (centres unmarked) [Example 72 in US 6878691]: in the assay on MRSA 33591, the “MRSA 33591 (microbiological data)” value is above 64. The “H. influenzae 49247 (microbiological data)” value with H influenzae 49247 was found to be 8. Besides, the “H. influenzae 33929 (microbiological data)” value with H influenzae 33929 came to 8.
Turning to `CCC1OC(=O)C(C)C(=O)C(C)C(OC2OC(C)CC(N(C)C)C2O)C2(C)CC(C)C(=NC(C)=O)C(C)C(OCC(=NOCc3ccc(-n4cncn4)cc3)CO2)C1(C)O` (centres unmarked) [Example 91 in US 6878691], in the assay with MRSA 33591, the “MRSA 33591 (microbiological data)” value is listed as above 64. Besides, in the assay with H influenzae 49247, the “H. influenzae 49247 (microbiological data)” value was found to be 8. Besides, the “H. influenzae 33929 (microbiological data)” value with H influenzae 33929 stood at 16.
With `CCC1OC(=O)C(C)C(=O)C(C)C(OC2OC(C)CC(N(C)C)C2O)C2(C)CC(C)C(=NC(C)=O)C(C)C(OCC(=NOCc3noc(-c4ccccc4)n3)CO2)C1(C)O` (centres unmarked) [Example 106 in US 6878691], the “MRSA 33591 (microbiological data)” value with MRSA 33591 is above 64. In the assay with H influenzae 49247, the “H. influenzae 49247 (microbiological data)” value came to 8. Besides, the “H. influenzae 33929 (microbiological data)” value in the assay with H influenzae 33929 was found to be 8.
`CCC1OC(=O)C(C)C(=O)C(C)C(OC2OC(C)CC(N(C)C)C2O)C2(C)CC(C)C(=NC(C)=O)C(C)C(OCC(=NOCc3ccc(-c4ccccn4)s3)CO2)C1(C)O` (centres unmarked) [Example 115 in US 6878691]: the “MRSA 33591 (microbiological data)” value in the assay with MRSA 33591 was above 64. The “H. influenzae 49247 (microbiological data)” value with H influenzae 49247 turned out to be 16. Moreover, the “H. influenzae 33929 (microbiological data)” value in the assay on H influenzae 33929 is 16.
For `CCC1OC(=O)C(C)(F)C(=O)C(C)C(OC2OC(C)CC(N(C)C)C2O)C2(C)CC(C)C(=NC(C)=O)C(C)C(OCC(=NOCc3ccc(-c4ncccn4)s3)CO2)C1(C)O` (centres unmarked) [Example 140 in US 6878691], in the assay on MRSA 33591, the “MRSA 33591 (microbiological data)” value came to 16. Besides, the “H. influenzae 49247 (microbiological data)” value in the assay on H influenzae 49247 was determined as 8. The “H. influenzae 33929 (microbiological data)” value with H influenzae 33929 amounted to 8.
Consider `CCC1OC(=O)C(C)(F)C(=O)C(C)C(OC2OC(C)CC(N(C)C)C2O)C2(C)CC(C)C(=NC(C)=O)C(C)C(OCC(=NOCc3ccc(-c4cnccn4)s3)CO2)C1(C)O` (centres unmarked) [Example 141 in US 6878691], for which, in the assay on MRSA 33591, the “MRSA 33591 (microbiological data)” value is 32. Besides, the “H. influenzae 49247 (microbiological data)” value in the assay on H influenzae 49247 is given as 8. Besides, the “H. influenzae 33929 (microbiological data)” value in the assay on H influenzae 33929 was 8.
Turning to `CCC1OC(=O)C(C)(F)C(=O)C(C)C(OC2OC(C)CC(N(C)C)C2O)C2(C)CC(C)C(=NC(C)=O)C(C)C(OCC(=NOCc3ccc(-c4cccc(N)n4)s3)CO2)C1(C)O` (centres unmarked) [Example 173 in US 6878691], the “MRSA 33591 (microbiological data)” value in the assay on MRSA 33591 stood at 4. The “H. influenzae 49247 (microbiological data)” value with H influenzae 49247 is 4. In addition, the “H. influenzae 33929 (microbiological data)” value with H influenzae 33929 stood at 4.
Regarding `CCC1OC(=O)C(C)C(=O)C(C)C(OC2OC(C)CC(N(C)C)C2O)C2(C)CC(C)C(=NC(C)=O)C(C)C(OCC(=NOCc3ccc(-c4ncccn4)cc3)CO2)C1(C)O` (centres unmarked) [Example 193 in US 6878691], in the assay on MRSA 33591, the “MRSA 33591 (microbiological data)” value is 64. The “H. influenzae 49247 (microbiological data)” value in the assay on H influenzae 49247 is reported as 8. Also, in the assay with H influenzae 33929, the “H. influenzae 33929 (microbiological data)” value is recorded as 8.
Turning to `CCNC(=O)c1cccc(-c2cc(CON=C3COC4C(C)C(=NC(C)=O)C(C)CC(C)(OC3)C(OC3OC(C)CC(N(C)C)C3O)C(C)C(=O)C(C)C(=O)OC(CC)C4(C)O)on2)n1` (centres unmarked) [Example 195 in US 6878691], the “MRSA 33591 (microbiological data)” value in the assay with MRSA 33591 is on record as above 64. The “H. influenzae 49247 (microbiological data)” value with H influenzae 49247 is 32. Besides, in the assay with H influenzae 33929, the “H. influenzae 33929 (microbiological data)” value was 32.
In the case of `CCC1OC(=O)C(C)C(=O)C(C)C(OC2OC(C)CC(N(C)C)C2O)C2(C)CC(C)C(=NC(C)=O)C(C)C(OCC(=NOCc3ccc(-c4cccs4)nc3)CO2)C1(C)O` (centres unmarked) [Example 205 in US 6878691], in the assay with MRSA 33591, the “MRSA 33591 (microbiological data)” value was above 64. The “H. influenzae 49247 (microbiological data)” value with H influenzae 49247 is 8. For the same compound, the “H. influenzae 33929 (microbiological data)” value in the assay on H influenzae 33929 is recorded as 4.
The corresponding values for `CCC1OC(=O)C(C)C(=O)C(C)C(OC2OC(C)CC(N(C)C)C2O)C2(C)CC(C)C(=NC(C)=O)C(C)C(OCC(=NOCc3ccc(-c4nccs4)nc3)CO2)C1(C)O` (centres unmarked) [Example 212 in US 6878691] are 64, 8 and 4.
For the compound `CCC1OC(=O)C(C)(F)C(=O)C(C)C(OC2OC(C)CC(N(C)C)C2O)C2(C)CC(C)C(=NC(C)=O)C(C)C(OCC(=NOCc3ccc(-n4cccn4)nc3)CO2)C1(C)O` (centres unmarked) [Example 214 in US 6878691], in the assay with MRSA 33591, the “MRSA 33591 (microbiological data)” value is listed as 64. In addition, in the assay with H influenzae 49247, the “H. influenzae 49247 (microbiological data)” value is reported as 8. Also, the “H. influenzae 33929 (microbiological data)” value in the assay with H influenzae 33929 is listed as 4.
For the compound `CCC1OC(=O)C(C)(F)C(=O)C(C)C(OC2OC(C)CC(N(C)C)C2O)C2(C)CC(C)C(=NC(C)=O)C(C)C(OCC(=NOCc3ccc(-c4csnn4)cc3)CO2)C1(C)O` (centres unmarked) [Example 219 in US 6878691], the “MRSA 33591 (microbiological data)” value in the assay with MRSA 33591 stood at 32. Also, the “H. influenzae 49247 (microbiological data)” value in the assay with H influenzae 49247 is reported as 4. Also, the “H. influenzae 33929 (microbiological data)” value in the assay on H influenzae 33929 is 4.
For the compound `CCC1OC(=O)C(C)C(=O)C(C)C(OC2OC(C)CC(N(C)C)C2O)C2(C)CC(C)C(=NC(C)=O)C(C)C(OCC(=NOCc3ccc(-c4cccc(N)n4)nc3)CO2)C1(C)O` (centres unmarked) [Example 227 in US 6878691], in the assay on MRSA 33591, the “MRSA 33591 (microbiological data)” value was 32. For the same compound, in the assay on H influenzae 49247, the “H. influenzae 49247 (microbiological data)” value amounted to 4. Also, the “H. influenzae 33929 (microbiological data)” value with H influenzae 33929 was 4.
For the compound `CCC1OC(=O)C(C)C(=O)C(C)C(OC2OC(C)CC(N(C)C)C2O)C2(C)CC(C)C(=NC(C)=O)C(C)C(OCC(=NOCc3ccc(-c4nnc(N)s4)nc3)CO2)C1(C)O` (centres unmarked) [Example 234 in US 6878691], the “MRSA 33591 (microbiological data)” value in the assay on MRSA 33591 was above 64. The “H. influenzae 49247 (microbiological data)” value in the assay on H influenzae 49247 is listed as 4. Moreover, the “H. influenzae 33929 (microbiological data)” value in the assay with H influenzae 33929 stood at 4.
For the compound `CCC1OC(=O)C(C)C(=O)C(C)C(OC2OC(C)CC(N(C)C)C2O)C2(C)CC(C)C(=NC(C)=O)C(C)C(OCC(=NOCc3cnc(-n4cccn4)c(F)c3)CO2)C1(C)O` (centres unmarked) [Example 259 in US 6878691], in the assay on MRSA 33591, the “MRSA 33591 (microbiological data)” value is above 64. Further, in the assay with H influenzae 49247, the “H. influenzae 49247 (microbiological data)” value was determined as 4. The “H. influenzae 33929 (microbiological data)” value with H influenzae 33929 stood at 8.
